We go through 39 compounds from patent US5753709A, “N-acyl-2 aryl cyclopropylmethylamine derivatives as melatonergics” (Bristol-Myers Squibb Company, priority 1996, dated 1998).

Structures are written as SMILES.

The first test deals with T1, human melatonin receptor (human ML1A) (Homo sapiens, UniProt P48039).
T1 construct: expressed in transfected cells; host or cells: COS-1 cells (transient, pcDNAI, DEAE-dextran); membrane homogenates
T1 sequence (P48039 whole entry): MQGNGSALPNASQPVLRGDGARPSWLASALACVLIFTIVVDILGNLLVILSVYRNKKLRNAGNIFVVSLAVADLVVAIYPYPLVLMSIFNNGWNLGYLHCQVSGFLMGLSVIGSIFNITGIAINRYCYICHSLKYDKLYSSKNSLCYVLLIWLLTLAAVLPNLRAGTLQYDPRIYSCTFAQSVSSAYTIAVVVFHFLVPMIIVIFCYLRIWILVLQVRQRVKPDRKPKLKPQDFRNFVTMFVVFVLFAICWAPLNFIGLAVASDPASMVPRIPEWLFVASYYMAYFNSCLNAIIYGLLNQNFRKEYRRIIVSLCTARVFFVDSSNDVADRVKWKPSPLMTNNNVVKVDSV
The experiment in a line: Melatonergic binding: displacement of 2-[125I]-iodomelatonin at the human melatonin receptor (human ML1A in COS-1 membranes). Particulars: Table 4; displacement of 2[125I]-Iodomelatonin (100 pM), 37° C., 1 hour. The method, then:
The melatonergic binding of the compounds of Formula I was determined by a modification of the method of Reppert, S. M. et al. (Neuron, Volume 13, pages 1177-1185, 1994). […] The reagents, membranes, and other parameters used in the assay are described below:
(a) 50 mM Tris buffer containing 12.5 mM MgCl2, and 2 mM EDTA (pH 7.4 at 37° C.).
(b) Wash buffer: 20 mM Tris base containing 2 mM MgCl2 (pH 7.4 at room temperature).
(c) 6-Chloromelatonin (10^-5 M final concentration).
(d) 2-[^125 I]-Iodomelatonin (100 pM final concentration). (Source: NEN) Membrane preparation: The cDNA (human ML1A) in pcDNAI was introduced into COS-1 cells by the DEAE-dextran method. Three days later, after media removal, the plates were washed with buffered saline; the cells removed using Hank's balanced salt solution and pelleted. The supernant was discarded and the pellets frozen. For membrane homogenates, the pellets were thawed and resuspended in TME buffer, Tris base, MgCl2, EDTA (pH 7.4 at 37° C.), and supplemented with aprotinin, leupeptin, and phenylmethylsulfonyl fluoride. The cells were homogenized and centrifuged; the resulting pellet resuspended in TME and frozen. At assay, the small aliquot was thawed on ice and resuspended in TME buffer. Incubation: 37° C. for 1 hour. Reaction is terminated by filtration.
`CCCC(=O)N(Cc1ccccc1)C[C@@H]1C[C@H]1c1cccc(OC)c1` (relative stereo) [Example 6, (trans)-N-[[2-(3-Methoxyphenyl)cyclopropyl]methyl]-N-(phenylmethyl) butanamide]: the IC50 (as a rule, the midpoint of a concentration-inhibition curve) lay in the range of 40 to 250 nM.
On the same count and under the same terms, next, `COCC(=O)NC[C@@H]1C[C@H]1c1cccc(OC)c1` (relative stereo) [Example 20, (trans)-N-[[2-(3-Methoxyphenyl)cyclopropyl]methyl]-2-methoxyacetamide]: 5 to 40 nM; `CCCC(=O)NC[C@@H]1C[C@H]1c1cc(OC)ccc1I` (relative stereo) [Example 4, (trans)-N-[[2-(2-Iodo-5-methoxyphenyl)cyclopropyl]methyl]butanamide]: < 5 nM.
On the same count and under the same terms, for `CCC(=O)NC[C@@H]1C[C@H]1c1cccc(OC)c1` (relative stereo) [Example 18, (trans)-N-[[2-(3-Methoxyphenyl)cyclopropyl]methyl] propanamide] the value was < 5 nM.

The test is the same for the next values; noted with them: Table 5; displacement of 2[125I]-Iodomelatonin (100 pM), 37° C., 1 hour.
In turn, `CCCC(=O)NC[C@@H]1C[C@H]1c1cccc(OCC)c1` (relative stereo) [Example 48] returned a 50% inhibitory concentration (IC50) of 5 to 40 nM.
Same read-out and setting: for `CCCC(=O)NC[C@@H]1C[C@H]1c1cccc(OCCCC(=O)OC)c1` (relative stereo) [Example 108] the value was 40 to 250 nM; for `CCCC(=O)NC[C@@H]1C[C@H]1c1cccc(OCCCc2cccc(OC)c2)c1` (relative stereo) [Example 62, (trans)-N-[[2-[3-[3-(3-Methoxyphenyl)propoxy]phenyl]cyclopropyl]methyl] butanamide], 5 to 40 nM; for `CCCC(=O)NC[C@@H]1C[C@H]1c1cccc(OCCCc2cccc(OC)c2)c1` (single isomer, unassigned) [Example 84, (-)-(trans)-N-[[2-[3-[3-(3-Methoxyphenyl)propoxy]phenyl]cycloprop-1-yl)methyl] butanamide], < 5 nM.
The same measure, in the same setting: next, `CCCC(=O)NC[C@@H]1C[C@H]1c1cccc(OCCCC#Cc2ccccc2)c1` (relative stereo) [Example 47]: 250 to 600 nM; `CCCC(=O)NC[C@@H]1C[C@H]1c1cccc(O)c1` (relative stereo) [Example 7a, (trans)-N-[[2-(3-Hydroxyphenyl)cyclopropyl]methyl] butanamide]: 250 to 600 nM.
As for `CCCC(=O)NC[C@@H]1C[C@H]1c1ccccc1` (single isomer, unassigned) [Example 90, (-)-(trans)-N-[(2-Phenylcycloprop-1-yl)methyl] butanamide], the IC50 was 40 to 250 nM.
Still for that read-out and setting: next, `CCCC(=O)NC[C@@H]1C[C@H]1c1cccc(OCCCc2ccc(OC)cc2)c1` (relative stereo) [Example 127, (trans)-N-[[2-[3-[3-(4-Methoxyphenyl)propoxy]phenyl]cycloprop-1-yl]methyl]butanamide]: 5 to 40 nM.
On the same count and under the same terms, for `CCCC(=O)NC[C@@H]1C[C@H]1c1cccc(Cl)c1` (relative stereo) [Example 80, (trans)-N-[[2-(3-Chlorophenyl)cycloprop-1-yl]methyl] butanamide] the value was 5 to 40 nM.
The same measure, in the same setting: next, `CCCC(=O)NC[C@@H]1C[C@H]1c1cccc(OCCc2ccccc2)c1` (relative stereo) [Example 60, (trans)-N-[[2-[3-[(2-Phenylethyl)oxy]phenyl]cyclopropyl]methyl] butanamide]: 5 to 40 nM.
Regarding `CCCCCCCCCCCCCCCCOc1cccc([C@@H]2C[C@H]2CNC(=O)CCC)c1` (relative stereo) [Example 59], the IC50 is 250 to 600 nM.
Same read-out and setting: for `CCCCCCCCOc1cccc([C@@H]2C[C@H]2CNC(=O)CCC)c1` (relative stereo) [Example 54, (trans)-N-[[2-[(3-Octyloxy)phenyl]cyclopropyl]methyl] butanamide] the value was 5 to 40 nM.
Same read-out and setting: next, `CCCC(=O)NC[C@@H]1C[C@H]1c1cccc(OCC(C)C)c1` (relative stereo) [Example 61]: 250 to 600 nM.
The same measure, in the same setting: next, `CCCC(=O)NC[C@@H]1C[C@H]1c1cccc(OCCCOc2ccccc2)c1` (relative stereo) [Example 96, (trans)-N-[[2-[3[(3-Phenoxyprop-1-yl)oxy]phenyl]cycloprop-1-yl]methyl] butanamide]: 5 to 40 nM; `CCCC(=O)NC[C@@H]1C[C@H]1c1cccc(OCCCCCCc2ccccc2)c1` (relative stereo) [Example 45]: 40 to 250 nM; `C#CC(C)=CCOc1cccc([C@@H]2C[C@H]2CNC(=O)CCC)c1` (relative stereo) [Example 122]: 5 to 40 nM.
Consider `CCCC(=O)NC[C@@H]1C[C@H]1c1cccc(OCCc2cccc(C(F)(F)F)c2)c1` (relative stereo) [Example 123, (trans)-N-[[2-[3-[2-[3-(Trifluoromethyl)phenyl]ethoxy]phenyl]cycloprop-1-yl]methyl] butanamide], for which the IC50 is < 5 nM.
On the same count and under the same terms, next, `CCCC(=O)NC[C@@H]1C[C@H]1c1cccc(OCCCF)c1` (relative stereo) [Example 94]: 40 to 250 nM.
Take `CCCC(=O)NC[C@@H]1C[C@H]1c1cccc(OCCc2cccc(F)c2)c1` (relative stereo) [Example 125, (trans)-N-[[2-[3-[2-(3-Fluorophenyl)ethoxy]phenyl]cycloprop-1-yl]methyl] butanamide]: the IC50 lay in the range of 5 to 40 nM.
With `C=CCCCOc1cccc([C@@H]2C[C@H]2CNC(=O)CCC)c1` (relative stereo) [Example 105], the IC50 lay in the range of 5 to 40 nM.
`CCCCCCCOc1cccc([C@@H]2C[C@H]2CNC(=O)CCC)c1` (relative stereo) [Example 53, (trans)-N-[[2-[3-(Heptyloxy)phenyl]cyclopropyl]methyl] butanamide] registered an IC50 of 40 to 250 nM.
Still for that read-out and setting: next, `CCCC(=O)NC[C@@H]1C[C@H]1c1cccc(OCCCn2cccc2)c1` (relative stereo) [Example 98]: 5 to 40 nM; `CCCC(=O)NC[C@@H]1C[C@H]1c1cccc(OCCCCC2CCCCC2)c1` (relative stereo) [Example 116]: 5 to 40 nM.
Same read-out and setting: next, `CCCC(=O)NC[C@@H]1C[C@H]1c1cccc(OCCC=C(C)C)c1` (relative stereo) [Example 106, (trans)-N-[[2-[3-(4-Methyl-3-penten-1-yloxy)phenyl]cycloprop-1-yl]methyl] butanamide]: 5 to 40 nM.
On the same count and under the same terms, for `CCCC(=O)NC[C@@H]1C[C@H]1c1cc(F)ccc1F` (relative stereo) [Example 87, (trans)-N-[[2-(2,5-Difluorophenyl)cycloprop-1-yl]methyl] butanamide] the value was 40 to 250 nM; for `CCCC(=O)NC[C@@H]1C[C@H]1c1cccc(OCCCCC(C)(C)C#N)c1` (relative stereo) [Example 107], 40 to 250 nM; for `CCCC(=O)NC[C@@H]1C[C@H]1c1cccc(OCCCc2ccccc2)c1` (relative stereo) [Example 95, (trans)-N-[[2-[3[(3-Phenylprop-1-yl)oxy]phenyl]cycloprop-1-yl]methyl] butanamide], 5 to 40 nM.
Consider `CCCC(=O)NC[C@@H]1C[C@H]1c1cccc(OCCCCC(C)C)c1` (relative stereo) [Example 100, (trans)-N-[[2-[3-(5-Methylhexyloxy)phenyl]cycloprop-1-yl]methyl] butanamide], for which the IC50 fell in the range of 5 to 40 nM.
Still for that read-out and setting: next, `CC(C)C(=O)NC[C@@H]1C[C@H]1c1cccc(F)c1` (single isomer, unassigned) [Example 65, (-)-(trans)-N-[[2-(3-Fluorophenyl)cycloprop-1-yl]methyl]-2-methylpropanamide]: 250 to 600 nM; `CCCC(=O)NC[C@@H]1C[C@H]1c1cccc(C)c1` (relative stereo) [Example 75, (trans)-N-[[2-(3-Methylphenyl)cycloprop-1-yl]methyl] butanamide]: 5 to 40 nM; `CCCC(=O)NC[C@@H]1C[C@H]1c1cccc(OCCCc2ccncc2)c1` (relative stereo) [Example 63]: 40 to 250 nM.
As to `CCCC(=O)NC[C@@H]1C[C@H]1c1cccc(CC)c1` (relative stereo) [Example 114, (trans)-N-[2-[(3-Ethylphenyl)cycloprop-1-yl]methyl] butanamide], the IC50 fell in the range of 5 to 40 nM.

Staying with this test, now noted: Table 6; displacement of 2[125I]-Iodomelatonin (100 pM), 37° C., 1 hour.
Take `CCCC(=O)NCC[C@@H]1C[C@H]1c1cccc(OC)c1` (single isomer, unassigned) [Example 16, (-)-(trans)-N-[[2-(3-Methoxyphenyl)cyclopropyl]ethyl]butanamide]: the IC50 is 250 to 600 nM.
Still for that read-out and setting: for `COc1cccc([C@H]2[C@H](CNC(=O)C(C)C)C2(F)F)c1` (relative stereo) [Example 134, (trans)-N-[[3-(3-Methoxyphenyl)-2,2-difluoro--cycloprop-1-yl]methyl]-2-methylpropanamide] the value was 40 to 250 nM.

The test is the same for the next values; noted with them: read-out: Binding affinity (IC50) at the human melatonin receptor; Table 5; displacement of 2[125I]-Iodomelatonin (100 pM), 37° C., 1 hour.
Consider `[2H]C([2H])([2H])Oc1cccc([C@@H]2C[C@H]2CNC(=O)CCC)c1` (relative stereo) [Example 111, (trans)-N-[2-[(3-Trideuteromethoxyphenyl)cycloprop-1-yl]methyl] butanamide], for which the IC50 is < 5 nM.
